Measurements as given in patent US8258099B2, “Pin1-modulating compounds and methods of use thereof” (Max-Planck-Gesellschaft zur Foerderung der Wissenschaften …, priority 2004, dated 2012).
Square brackets hold non-standard residues; d marks the D form. Peptide text beside a SMILES is read from it. * marks the point of attachment. Biotin = O=C1N[C@H]2[C@H](CS[C@H]2CCCCC(=O)*)N1; d(pT) = C[C@H](OP(=O)(O)O)[C@@H](N)C(=O)O; 2Nal = N[C@@H](Cc1ccc2ccccc2c1)C(=O)O; Bta = N[C@@H](Cc1csc2ccccc12)C(=O)O; Pip = O=C(O)[C@@H]1CCCCN1

What was measured:
endogenous XlPin1 = assay: Immunofluorescence of microinjected X. laevis embryos; format: in vivo; conditions: stage 8
Method: FIG. 11 depicts the colocalization of peptide 16 and endogenous XlPin1 in X. laevis embryos. 100 pmol and 250 pmol of peptide 16 dissolved in 10 nl PBS buffer were injected in X. laevis embryos at stage 2 of development. In a control experiment, 10 nl of the pure PBS buffer were injected. Embryos were fixed at stage 8, embedded and cryosectioned. Peptide 16 is stained in green using the Oregon Green™ 488-labeled NeutrAvidin biotin-binding protein. Endogenous XlPin1 is stained in red using a monoclonal anti hPin1 antibody (mAb hPin1) from mouse and an Alexa Fluor 546™-conjugated secondary antibody. Overlapping patterns are shown in yellow in the merged images. Nuclei are stained with DAPI.
Microinjection was done into the animal half of X. laevis embryos at stage 2 of development. In every case, the injection volume was 10 nl. Immunofluorescence studies of frozen X. laevis embryo sections were performed as previously described (Julius et al., 2000). Ten-micrometer cryosections of stage 8 embryos were labelled using a monoclonal anti hPin1 antibody (mouse) followed by incubation with Alexa Fluor 546™-conjugated anti mouse antibody of goat serum (Molecular Probes). […] Samples were analyzed using an Axioplan epifluorescence microscope with fluorescein and Cy3 selective filter sets. […]

authentic hPin1 = biological target: T1, authentic hPin1 (Homo sapiens, UniProt Q13526); assay: Pull down assay, HeLa cell lysate; format: binding; conditions: streptavidin sepharose
T1 construct: endogenous in cells; host or cells: HeLa cell lysate
T1 sequence (Q13526 whole entry): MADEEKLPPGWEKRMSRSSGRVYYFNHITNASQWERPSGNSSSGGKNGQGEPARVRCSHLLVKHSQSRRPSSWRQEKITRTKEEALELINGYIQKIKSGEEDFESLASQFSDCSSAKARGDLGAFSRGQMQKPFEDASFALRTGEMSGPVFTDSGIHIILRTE
Method: (§1) FIGS. 5A-B depict pull down assays showing peptide 16 binds to authentic XlPin1 (A) and hPin1 from HeLa cells (B). FIG. 5A depicts the indicated concentrations of peptide 16 were incubated with X. laevis embryo extract in the absence of phosphatase inhibitors. Peptide 16/XlPin1-complex was then extracted from the respective mixture using streptavidin sepharose. Samples were analyzed regarding coextracted XlPin1 by SDS PAGE followed by western blot analysis. Untreated lysate (input) was loaded as a control. Authentic XlPin1 was detected using an anti hPin1 PPIase domain antiserum followed by incubation with a horseradish peroxidase-conjugated secondary antibody. Visualization was done using the SuperSignal® substrate. FIG. 5B indicates concentrations of peptide 16 were incubated with HeLa cell lysate in the absence of phosphatase inhibitors. The peptide 16/hPin1-complex was then precipitated from the respective mixture using streptavidin sepharose and isolated from the supernatant. Extracted proteins and the supernatants were then analyzed by SDS PAGE. […] After western blotting, hPin1 was detected using an anti hPin1 PPIase domain antiserum as primary antibody and a horseradish peroxidase-conjugated secondary antibody. […]
(§2) Peptide 16 (see Table III) was incubated with HeLa cell or X. laevis embryo lysate for 1 hour at 4° C. […] The samples were then heated to 95° C. and analyzed by SDS PAGE. […]

authentic XlPin1 = assay: Pull down assay, X. laevis embryo lysate; format: binding; conditions: no phosphatase inhibitors, streptavidin sepharose
Method: as §1, §2

X. laevis embryos = assay: Microinjection in X. laevis embryos, cell division; format: in vivo; conditions: microinjection at stage 2
Method: FIG. 8 depicts the blocking of cell division by the injection of peptide 17 in X. laevis embryos. 50-300 pmol of peptide 17 or 300 pmol of its nonphosphorylated derivative (control) dissolved in 10 nl PBS buffer were microinjected in the animal half of X. laevis embryos at stage 2 of development. Embryos with large and/or apoptotic appearing cells surrounded by normally developing cells were counted after further 5 hours (stage 8-9) of development. […] Each value is the average of four independent experiments.
FIGS. 9A-F depicts phenotypic analysis of X. laevis embryos after injection of peptide 17. 300 pmol of peptide 17 or its nonphosphorylated derivative dissolved in 10 nl PBS buffer were injected in the animal half of X. laevis embryos at stage 2 of development. 1.5 hour at stage 6 (A), 2.5 hours at stage 7 (B) and 4-5 hours at stage 8-9 (C, D) after injection enlarged cells became visible. Cells that are blocked in cell division are marked with a white arrow. Controls of uninjected embryos of stage 8-9 and embryos that were injected with 300 pmol of the nonphosphorylated derivative of peptide 17 are shown in panels E and F. The site where the nonphosphorylated derivative of peptide 17 was injected is marked with a white arrow (F).
FIGS. 10A-D depict the rescue of peptide 17 caused cell division block in X. laevis embryos by hPin1 (A, B) and different hPin1 variants (C, D). FIG. 10A depicts the time course of V5-tagged hPin1 expression was analyzed by preparation of X. laevis embryo lysate 1, 2 and 4 hours after injection of 1, 2 or 3 ng of V5-tagged hPin1 mRNA. In every case, the injected volume was 10 nl. Lysates were prepared in lysis buffer containing phosphatase and protease inhibitors. Samples were separated by SDS PAGE followed by western blotting. Endogenous XlPin1 and V5-tagged hPin1 were detected using an anti hPin1 PPIase domain antiserum as primary antibody followed by incubation with a horseradish peroxidase-conjugated secondary antibody. Visualization was done using the SuperSignal® substrate. […] In every case, the whole volume of injection was 10 nl. The indicated amount of the mRNA was injected in the animal half of 30 embryos at stage 2 of development. Embryos with large and/or apoptotic appearing cells surrounded by normally developed cells were counted after additional 5 hours of development (stage 8-9). […] Each percentage of vital embryos shown in the figure is the average of four independent experiments. FIG. 10C indicates the expression of V5-tagged hPin1 variants was evaluated by preparation of embryo lysate after 4 hours of injection of the respective mRNA (2 ng) in X. laevis embryos. Lysates were prepared in lysis buffer containing phosphatase and protease inhibitors. Samples were separated using SDS PAGE followed by western blot analysis. Endogenous XlPin1 and injected V5-tagged hPin1 variants were detected using an anti hPin1 PPIase domain antiserum as primary antibody and a horseradish peroxidase-conjugated secondary antibody. Visualization was done by a chemiluminescent reaction using the SuperSignal® substrate (Pierce). FIG. 10D depicts 250 pmol of peptide 17 was coinjected with 2 ng mRNA of the indicated V5-tagged hPin1 variant (whole volume 10 nl) in the animal half of 30 X. laevis embryos at stage 2 of development. Results were analyzed as described for FIG. 10B. Each percentage of vital embryos shown in the figure is the average of four independent experiments.
Microinjection was done into the animal half of X. laevis embryos at stage 2 of development. In every case, the injection volume was 10 nl. Immunofluorescence studies of frozen X. laevis embryo sections were performed as previously described (Julius et al., 2000). Ten-micrometer cryosections of stage 8 embryos were labelled using a monoclonal anti hPin1 antibody (mouse) followed by incubation with Alexa Fluor 546™-conjugated anti mouse antibody of goat serum (Molecular Probes). […]

[1] = Stability against cellular phosphatases and proteases in HeLa cell lysate; format: in vitro ADME; conditions: discussion statement (FIG. 4)
Method: FIG. 4 depicts the stability of peptide 17 against cellular phosphatases and proteases. Peptide 17 was incubated for 3 hours in HeLa cell lysate in the absence of phosphatase and protease inhibitors. The mixture was then analyzed by capillary electrophoresis (short dashed line). As controls, the untreated peptide 17 (solid line) and its nonphosphorylated derivative (dotted line) were used. The temperature of the capillary thermostating system was kept at 16° C. Separation buffer was 50 mM sodium phosphate, pH 7.0. Signals were detected at 220 nm.
Peptide 17 was incubated with HeLa cell lysate for 3 h and analyzed with capillary electrophoresis using UV detection at 220 nm on a P/ACE MDQ (Beckman Coulter, Palo Alto, Calif.) system. Fused-silica capillaries (Polymicro Technologies) of 40 cm length at an operation voltage of 20 kV were used. As references, untreated peptide 17 and its nonphosphorylated derivative were used. The samples were hydrodynamically injected with 3.45 kPa for 10 s. 50 mM sodium phosphate buffer (pH 7.0) was used as separation buffer. The system temperature was kept at 16° C.
The stability of peptides 15 and 17 in cytoplasmic extracts from HeLa cells was investigated using MALDI-TOF mass spectrometry and capillary electrophoresis, respectively. In the cytosolic incubation mixture, streptavidin sepharose beads served to isolate peptide 15 fragments after prolonged incubation. […] Therefore, phosphopeptides are useless for evaluating Pin1 functions in vivo unless dephosphorylation can be avoided.

Q: What does the source list for `CC(=O)N[C@@H](CCCCNC(=O)CCCC[C@@H]1SC[C@@H]2NC(=O)N[C@@H]21)C(=O)N[C@@H](C)C(=O)N[C@@H](C)C(=O)N[C@@H](Cc1csc2ccccc12)C(=O)N[C@@H](C(=O)N1CCCC[C@H]1C(=O)N[C@@H](Cc1ccc2ccccc2c1)C(=O)N[C@@H](CCC(N)=O)C(N)=O)[C@H](C)OP(=O)(O)O` [Peptide 16, Ac-Lys(N^ε-biotinoyl)-Ala-Ala-Bth-D-Thr(PO3H2)-Pip-Nal-Gln-NH2] (Ac-K(Biotin)AA[Bta][d(pT)][Pip][2Nal]Q-NH2)?
A: colocalization with XlPin1 (endogenous XlPin1; 100 pmol injected): clear nuclear colocalization; effect on embryonic tissue (endogenous XlPin1; 250 pmol injected): distortions of the embryonic tissue; pull down of authentic hPin1 (authentic hPin1): pulled down; coprecipitation of authentic XlPin1 (authentic XlPin1): coprecipitated with peptide 16 in a dose-dependent manner; effect on development of the embryos (X. laevis embryos): cell cycle blockage and embryonic death; stability in cytosol [1]: sufficiently stable
